Measurements as given in patent US6331555A, “Treatment of platelet derived growth factor related disorders such as cancers” (priority 1999, dated 2001).
Read-outs that look alike come from different tables or passages of the source.

Assays:
[1] = format: in vivo, mouse; conditions: IP A10 40 mg/kg single dose
Method: (§1) Plasma was prepared and frozen in liquid nitrogen. Tissues and organs were resected and immediately frozen in liquid nitrogen. After the addition of an internal standard, plasma samples were acidified with HCl and extracted with acetonitrile. The acetonitrile fraction was evaporated to dryness in a vacuum centrifuge with heating and redissolved in methanol. Tissue and organ samples were homogenized according to the weight ratio of 1:5 (w:v) in 50 mM Tris-HCl, pH 7.4, at 20,000 rev/min, using a tissue homogenizer (Brinkmann Polytron Model PT3000). After the addition of an internal standard, the homogenate was acidified with HCl and then extracted with acetonitrile. The acetonitrile fraction was then extracted with an equal volume of diethyl ether. The ether fraction was evaporated to dryness in a vacuum centrifuge with heating and redissolved in methanol.
Samples for HPLC analysis were injected onto a Hewlett Packard Hypersil 5-μm C18 cartridge column (100×4.6 mm). […] The compounds were monitored by UV absorption at 254 nm using a Hewlett-Packard diode-array detector (HP Model 1090). Plasma and tissue concentrations were determined from standard curves using peak area for quantitation. […]
(§2) Table XXII. […] Plasma and brain samples were prepared and analyzed by HPLC as described in Appendix 6. All results were calculated by the method of internal standardization. NT= not tested, ND= not detected.

[2] = Solubility; conditions: water
From the text: PBTE consists of a solution of 3% w/v benzyl alcohol, 8% w/v polysorbate 80, and 65% w/v polyethylene glycol (MW=300 daltons) in absolute ethanol. PBTE:D5W consists of PBTE diluted 1:1 in a solution of 5% dextrose in water. […] The solubility of the other compounds described herein can be obtained using standard techniques.

[3] = in vivo; design: species or system rat; conditions: IP A10 80 mg/kg single dose
Method: as §1
(§3) Samples for HPLC analysis were injected onto a Hewlett Packard Hypersil 5-μm C18 cartridge column (100×4.6 mm). The mobile phase was methanol:35 mM KH2 PO4 (pH 4.5) 55:45 containing 4 mM triethylamine. The flow rate was 1.2 mL/min. The compounds were monitored by UV absorption at 254 nm using a Hewlett-Packard diode-array detector (HP Model 1090). Plasma and tissue concentrations were determined from standard curves using peak area for quantitation. […] The internal standard used was 5-methyl-pyrazole-4-carboxylic acid-(4-trifluoromethyl)-anilide.
as §2

[4] = test system: C6 glioma cells; assay: C6 glioma SC xenograft in mice; format: in vivo
Method: Cell lines were grown in appropriate medium (see Appendix 1). Cells were harvested at or near confluency with 0.05% Trypsin-EDTA and pelleted at 450×g for 10 min. Pellets were resuspended in sterile PBS or media (without FBS) to a particular concentration and the cells were implanted into the hindflank of mice. Tumor growth was measured over 3 to 6 weeks using venier calipers. Tumor volumes were calculated as a product of length×width×height unless otherwise indicated. P values were calculated using the Students' t-test.
C6 and SKOV-3(T) cells were grown in culture, as described in "cell growth" above, and implanted into the hind flank of a female Balb/c nu/nu mouse at 3×10^6 cells (for C6 experiments), or 1×10^7 cells (for SKOV-3 experiments) in […] of PBS on Day 0. U87MG, U118MG or U373MG human glioblastoma cells (obtained from the ATCC), or A4312 were also implanted into athymic mice. […] Tumors were measured using venier calipers and tumor volume was calculated as a product of tumor length, width, and height.

[5] = test system: NIH3T3 cells overexpressing the human PDGF-b receptor; assay: PDGF-stimulated cell cycle progression, flow cytometry; format: cell-based, mouse
Method: NIH3T3 mouse fibroblasts overexpressing the human PDGF-β receptor were seeded in DMEM supplemented with 10% CS and 2 mM GLN. Cells were grown to about 80% confluence and then treated overnight in serum-free medium (DMEM, 2 mM GLN, 2 mM NEAA, 2 mM NaPyr, and 2 mM HEPES). […] Cells were then collected, strained and analyzed by flow cytometry for DNA content.
The percentage of cells in the S phase of the cell cycle was determined by flow cytometry.
The cells were analyzed for DNA content by flow cytometry.

[6] = test system: T98G cells; assay: PDGF-stimulated DNA synthesis, T98G cells (3H-thymidine); format: cell-based, human
Method: T98G cells in log phase growth were transferred to 96-well dishes at 20,000 cells in 200 μL of serum-containing growth medium. After an overnight attachment period, the monolayers were washed twice with 200 μL MCDB 105 medium and the cells were cultured in 200 μL serum-free MCDB 105 medium for 24 hr. […] The plates were incubated at 37° C. at ambient CO2 for approximately 18 hr. ^3 H-thymidine (Amersham, 5 Ci/mmol) was added to each well to yield a final concentration of 5 μCi/mL and the plates were returned to 37° C. incubator. After 4 hr the medium was removed, the plates were put onto ice, and washed twice with 200 μL ice-cold PBS per well. Radioactivity incorporated into DNA was separated from unincorporated ^3 H-thymidine by precipitation with 100 μL ice-cold TCA for 10 min on ice. […] Six mL of cocktail (Ready Safe, Beckman) was added and radioactivity quantified in a Beckman liquid scintillation counter model LS6000SC. […]
The effect on basal ^3 H-thymidine incorporation was determined in the absence of PDGF. […] Radioactivity incorporated into DNA was separated from unincorporated ^3 H-thymidine by precipitation with […] ice-cold TCA for 10 minutes. […] Six ml of cocktail (Ready Safe, Beckman) was added and radioactivity quantified in a Beckman liquid scintillation counter model LS6000 SC.

[7] = Method: as §1, §3, §2
[8] = test system: tumor cell lines; assay: In vitro growth assays, tumor cell lines; format: cell-based
Method: The assay measures protein content of acid-fixed cells using the counterion binding dye sulforhodamine B (SRB, Sigma). […] For other cell lines, the cells (2000 cells/well in 100 μL) were introduced into wells immediately after dispensing the drug solutions. After 4 days (37° C., 5% CO2) the monolayers were washed 3 times with PBS and fixed with 200 μL ice-cold 10% TCA (Fisher Scientific), and kept at 4° C. for 60 min. The TCA was removed and the fixed monolayers were washed 5 times with tap water and allowed to dry completely at room temperature on absorbent paper. The cellular protein was stained for 10 min with 100 μL 0.4% SRB dissolved in 1% acetic acid. After 5 washes with tap water, the dye was solubilized in 10 mM Tris base (100 μL per well) and absorbance read at 570 nm on a Dynatech plate reader model MR5000. Growth inhibition data are expressed as a percentage of absorbance detected in control wells which were treated with 0.4% DMSO alone. DMSO controls were not different from cells grown in regular growth medium. IC50 values were determined using a four parameter curve fit function.
For K562, DlB, L1210, 7TDl, T27A, and Colo320 DM cells, an MTT assay was used to assess cell growth. […] The absorbance was determined at 570 nm wavelength with a reference wavelength of 630 nm using an ELISA plate reader.

time detected in plasma [1]: more than 48 hr | solubility in water [2]: not very soluble in water | time detected in plasma [3]: greater than 24 hr | brain level, athymic mice compared to Wistar rats ([7]; 2 hr post-dose): 11 times | brain level, athymic mice compared to Wistar rats ([7]; 4 hr post-dose): 6.5 times | % Increase, multiple vs single dose ([7]; A10 20 mg/kg): 64% | % Increase, multiple vs single dose ([7]; A10 40 mg/kg): 69% | time detected in plasma ([7]; IP A10 40 mg/kg single dose): more than 48 hr | time detected in plasma ([7]; IP A10 […] mg/kg four weekly treatments, after last dose): 48 h | time detected in plasma ([7]; IP A10 […] mg/kg single dose): more than 48 hr
Compound: CC(O)=C(C#N)C(=O)Nc1ccc(C(F)(F)F)cc1 [Compound B11, 2-cyano-3-hydroxy-N-[4-(trifluoromethyl)phenyl]-2-butenamide]
inhibition of tumor growth compared with A10 ([4]; B11 15 mg/kg/day (DMSO) vs A10 15 mg/kg/day (DMSO)): to the same extent | potency compared to A10, growth of C6 tumors in vivo ([4]; rat, in vivo): equipotent in the inhibition of the growth of C6 tumors in vivo | potency compared to A10, PDGF-stimulated cell cycle progression [5]: equipotent | potency compared to A10, PDGF-stimulated DNA synthesis [6]: equipotent in inhibiting PDGF-stimulated DNA synthesis | potency compared to A10, in vitro growth assays [8]: equipotent to A10
